Measured values as given in article PMC2766802 (Analytical biochemistry, 2009).
pIC50: −log10 of the molar value. Where a name gives a salt, the structure may show the parent alone. Read-outs that look alike come from different tables or passages of the source.

Key:
[1] = molecular target: hERG channel (Homo sapiens, UniProt Q12809)
[2] = system: untransduced U-2 OS cells; experiment: thallium flux counter-screen in untransduced U-2 OS cells; format: cell-based, human; conditions: concentration response (Fig. 3A)
[3] = IC50, LOPAC 1280 library qHTS, titration series, hERG-expressing U-2 OS cells

hERG channel, sequence (Q12809 whole entry): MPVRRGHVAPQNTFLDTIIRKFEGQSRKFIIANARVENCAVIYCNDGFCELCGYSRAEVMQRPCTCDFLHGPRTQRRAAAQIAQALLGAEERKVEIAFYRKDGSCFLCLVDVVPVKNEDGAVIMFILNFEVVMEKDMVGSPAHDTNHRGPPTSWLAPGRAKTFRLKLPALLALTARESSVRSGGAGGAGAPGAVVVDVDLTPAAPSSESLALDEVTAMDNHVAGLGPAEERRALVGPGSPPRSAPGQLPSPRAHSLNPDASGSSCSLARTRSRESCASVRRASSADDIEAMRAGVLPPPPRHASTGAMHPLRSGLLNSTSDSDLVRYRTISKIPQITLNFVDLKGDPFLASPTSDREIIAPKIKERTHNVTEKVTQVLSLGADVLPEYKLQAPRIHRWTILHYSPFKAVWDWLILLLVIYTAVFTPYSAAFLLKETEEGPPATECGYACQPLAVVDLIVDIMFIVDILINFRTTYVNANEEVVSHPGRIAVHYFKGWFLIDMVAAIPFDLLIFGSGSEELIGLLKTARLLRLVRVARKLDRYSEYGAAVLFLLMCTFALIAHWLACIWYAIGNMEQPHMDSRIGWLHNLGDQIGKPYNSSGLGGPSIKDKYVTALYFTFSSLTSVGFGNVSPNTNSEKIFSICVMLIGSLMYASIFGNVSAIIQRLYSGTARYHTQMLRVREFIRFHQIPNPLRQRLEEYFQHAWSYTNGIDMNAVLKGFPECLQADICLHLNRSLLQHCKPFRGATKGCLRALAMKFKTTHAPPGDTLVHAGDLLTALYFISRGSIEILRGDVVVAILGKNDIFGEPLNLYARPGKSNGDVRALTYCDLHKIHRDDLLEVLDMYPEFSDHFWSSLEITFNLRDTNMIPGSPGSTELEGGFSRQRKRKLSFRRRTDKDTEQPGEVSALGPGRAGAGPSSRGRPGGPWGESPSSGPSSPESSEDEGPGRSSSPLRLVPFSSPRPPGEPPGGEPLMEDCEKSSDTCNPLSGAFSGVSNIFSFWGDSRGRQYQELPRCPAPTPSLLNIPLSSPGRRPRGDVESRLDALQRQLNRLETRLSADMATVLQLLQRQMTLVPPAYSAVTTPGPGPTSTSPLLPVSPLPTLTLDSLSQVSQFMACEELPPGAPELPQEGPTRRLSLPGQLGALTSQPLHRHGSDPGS

CCNC(=O)N1CCN(CCCC(c2ccc(F)cc2)c2ccc(F)cc2)CC1 [Amperozide hydrochloride]
pIC50 [1, 3]: 7.22

CCCCN1[C@@H]2CC[C@H]1CC(OC(c1ccc(F)cc1)c1ccc(F)cc1)C2 (some centres unmarked) [JHW 007 hydrochloride]
pIC50 ([1]; LOPAC 1280 library qHTS, titration series, hERG-expressing U-2 OS cells): 7.05

Cc1nc2sccn2c(=O)c1CCN1CCC(=C(c2ccc(F)cc2)c2ccc(F)cc2)CC1 [Ritanserin]
pIC50 [1, 3]: 7.15

CCOC(=O)C1=C[C@]2(CC)CCCN3CCc4c(n1c1ccccc41)[C@@H]32 [Vinpocetine]
pIC50 [1]: 6.85

O=C(CCCN1CCC(O)(c2ccc(Cl)cc2)CC1)c1ccc(F)cc1 [haloperidol]
effect on untransduced cells [2]: no effect
